Reference: patent US7737183B2, “β-amyloid and neurofibrillary tangle imaging agents” (The Regents of the University of California, priority 2006, dated 2010)
Several values for one entry are separate records, joined by “and”; a condition that tells them apart may be missing. Equal values may be shown once.

Legend:
[1] = system: senile plaques and neurofibrillary tangles; assay: In vitro autoradiographic binding to triple transgenic mouse sagittal brain slices; design: species or system triple transgenic mice; conditions: for selectivity of binding to the plaques: triple transgenic mice brain slices
Experimental: (§1) In vitro studies of ^18F-FBM were carried out on coronal and horizontal mice brain slices (both wild-type and Tg 2576), which were obtained on a Leica 1850 cryotome. Mice brain-region slices (hippocampus and frontal cortex of 24-month old wild-type and Tg 2576; 10 μm thick) were preincubated in buffer (0.9% saline) for 10 minutes. Subsequently, the mice brain slices were incubated with ^18F-FBM (6.8 μCi/cc) in 0.9% saline, pH 7.4 at 37° C. for 1 hr. For nonspecific binding, brain slices were treated with 10 μM FDDNP. Slices were washed with cold millipore water, 70% alcohol, 90%, alcohol, 70% alcohol, and water for 2, 1, 1, 1, and 1 min, respectively. The slices were air dried then exposed overnight onto a phosphor screen and read by the Phosphor Autoradiographic Imaging System/Cyclone Storage Phosphor System (Packard Instruments Co). Regions of interest were drawn on various regions of the slices and the extent of binding of ^18F-FBM was computed as DLU/mm^2 using the OptiQuant acquisition and analysis program (Packard Instruments Co).
(§2) Similar experiments were carried out in adjacent slices using ^18F-FDDNP (7.8 μCi/cc) for comparison. For evaluating the amount of plaque present in the brain slices, adjacent brain slices were also stained for the peptide fragment Aβ17-24 which is representative of the amount of Aβ40 and Aβ42 plaque aggregates using reported 4G8 immunostaining methods of UCI-Institute for Brain Aging and Dementia (Head E, Moffat K, Das P, Sarsoza E, Poon W W, Landsberg G, Cotman C W, Muphy M P. (2005). Beta-amyloid deposition and tau phosphorylation in clinically characterized aged cats. Neurobiology of Aging 26(5): 749-763). Beta-amyloid deposition and tau phosphorylation in clinically characterized aged cats. Neurobiology of Aging 26(5): 749-763).
Sagittal brain slices of 18 month old triple transgenic mice were then studied. These mice have been known to have an extensive amount of senile plaques and neurofibrillary tangles accumulation in several regions of the brain. These regions include the hippocampus, cortex, thalamus, brain stem and other regions. Binding of ^18F-FBM and ^18F-FDDNP to 10 micron thick slices of triple transgenic mice brains is depicted in FIG. 3 along with antibody staining for plaques. More specifically, FIG. 3A depicts antibody staining in the hippocampus and frontal cortex regions, which was also confirmed by thioflavin S staining in an adjacent slice (shown in inset in FIG. 3A). […] Regions of the hippocampus and the frontal cortex (arrows pointing) that contain the plaques are clearly evident.
The binding of ^18F-FBM in the various plaque containing regions was also quantitatively evaluated as a ratio plot shown in FIGS. 4A and 4B. Cerebellum and striatum were used as reference regions. […] The ratio between the frontal cortex regions showing plaques was between 6 and 7 while the hippocampus was between 3.5 and 4.5 as can be taken from FIG. 4A. […] On the other hand, in the case of ^18F-FDDNP, the binding ratios with respect to cerebellum were 1.5 and 2.0 as can be taken from FIG. 4B.

β-amyloid plaques [2] = target: T1, β-amyloid plaques (Homo sapiens, UniProt P05067); assay: In vitro autoradiographic binding to Tg2576 mouse hippocampal brain slices; design: representative of the amount of Aβ40 and Aβ42 plaque aggregates; from tissue; host or cells: hippocampal brain slices of 24-month old Tg2576 transgenic mice; species or system Tg2576 transgenic mice; conditions: for ratio of binding in plaque to non-plaque areas within the same slice: 10 μm hippocampal slice of 24-month old Tg2576 mouse
Experimental: as §1, §2
Hippocampal slice of 24-month old transgenic mouse (Tg2576, transgenic mice expressing mutant APP) stained for Aβ17-24 using 4G8 immunostaining confirmed presence of β-amyloid plaques found in Alzheimer's disease (FIGS. 1A and 2A depicting 10 μm thick horizontal hippocampal slice of 24-month old transgenic mouse (Tg2576) stained for Aβ17-24 using 4G8 immunostaining. Arrow indicates amyloid plaques.). Adjacent hippocampal slices radiolabeled with ^18F-FBM and ^18F-FDDNP indicated binding to amyloid plaques and corresponded to the 4G8 stain (FIGS. 1B and 2B depicting adjacent hippocampal slice shown in (A) but radiolabeled with high-specific activity ^18F-FBM or ^18F-FDDNP. Arrow indicates binding of ^18F-FBM or ^18F-FDDNP to the amyloid plaques and corresponds to the 4G8 stain.). The specific binding to amyloid plaques was reduced in the presence of 10 μM FDDNP (FIGS. 1C and 2C; FIG. 1C depicts adjacent hippocampal slice shown in (B) radiolabeled with high-specific activity ^18F-FBM in the presence of 10 μM FDDNP. Specific binding to regions containing plaques is reduced; and FIG. 2C depicts adjacent hippocampal slice in cold FDDNP. Specific binding to plaque regions is reduced). Alcohol was used for washing the medium to remove nonspecific binding. The ratio of binding in plaque to non-plaque areas within the same slice for ^18F-FBM was 2.1 while that for ^18F-FDDNP was 1.4; and in the presence of 10 μM FDDNP, these ratios went down to 1.6 and 1.2, respectively.

[3] = Relative lipophilicity from reverse-phase HPLC elution order; type: physicochemical; conditions: elutes first
Experimental: For the radiosynthesis step, high specific activity ^18F-fluoride (approximately 100 milliCurie) was produced in the MC-17 cyclotron. Fluorine-18 radioactivity count was measured in a Capintec dose calibrator, while low-level counts were measured out in a well-counter (Cobra Quantum, Packard Instruments Co). Direct radiolabeling of the tosylate precursor was done by using ^18F-fluoride in a solution of 19 mg of Kryptofix 2.2.2 and 0.75 mg potassium carbonate in acetonitrile. The mixture was heated at 85° C. for 20 minutes. After cooling, the mixture was transferred onto a neutral alumina Sep-Pak Cartridge to remove unreacted ^18F-fluoride. Chromatographic separations were preformed on semi-preparative reverse-phase C18 column (length=[…], ID=4.6 mm) using the Gilson high performance liquid chromatography (HPLC) systems. Decay-corrected radiochemical yield was approx. 20%. Retention time of ^18F-FBM was 14 mins compared to 15.7 mins for ^18F-FDDNP (for separation protocol, see e.g., Agdeppa E D et al. (2001) Binding Characteristics of Radiofluorinated 6-Dialkylamino-2-Naphthylethylidene Derivatives as Positron Emission Tomography Imaging Probes for Beta-Amyloid Plaques in Alzheimer's Disease. The Journal of Neuroscience 21, 1-5). ^18F-FBM was collected and prepared for in vitro binding studies. […]

β-amyloid plaques [4] = target: T1, β-amyloid plaques; assay: In vitro autoradiographic binding of 18F-FPCUR to transgenic mice brain slices; design: from tissue; host or cells: sagittal brain sections of Tg 2576 and 3×Tg transgenic mice, 1 to 24 months; species or system transgenic mice (Tg 2576 and 3×Tg)
Experimental: Preliminary binding to rat brain slices of ^18F-fluoropropyl curcumin was carried out at 37° C. in Tris buffer, 50 mM, pH 7.4 for one hour, and further testing of ^18F-FPCUR for binding to β-amyloid plaques was carried out transgenic mice brains. […] Brain slices were pre-incubated for 10 mins in incubation buffer, 0.1 M Tris, 0.1 M NaCl, 0.5% Tween and 0.1% BSA, pH 7.4. Incubation was carried out in 0.1 M Tris, 0.1 M NaCl, 0.5% Tween and 0.1% BSA, pH 7.4 with ^18F-FPCUR (3 μCi/cc) at 37° C. for 1 hr. […] Slices were washed with cold buffer, 2×2 min, rinsed with cold water and air dried. Autoradiograms were obtained of various slices and binding of ^18F-FPCUR was quantitated using Optiquant Image analysis program. […] For evaluating the amount of plaque present in the brain slices, adjacent brain slices were also stained using reported immunostaining methods.

T1 sequence (P05067 672-713 limits assumed): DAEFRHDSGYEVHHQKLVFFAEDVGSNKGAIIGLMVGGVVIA

Q: Which results are given for `CC(/C=C/c1ccc(N(C)CC[18F])cc1)=C(C#N)C#N` [18F-FBM, 4′-[(2-[^18F]fluoroethyl)(methyl)amino]-4-phenyl-3-buten-2-malonitrile]?
A: selectivity of binding to the plaques [1]: selective binding; ratio of binding in plaque to non-plaque areas within the same slice (β-amyloid plaques [2]; in the presence of 10 μM FDDNP): 1.6; ratio of binding in plaque to non-plaque areas within the same slice (β-amyloid plaques [2]; no competitor): 2.1; specific binding to amyloid plaque regions compared to 18F-FDDNP (β-amyloid plaques [2]; Tg2576 hippocampal slices): higher specific binding; lipophilicity relative to 18F-FDDNP [3]: less lipophilic

Q: With `CC(=C(C#N)C#N)c1ccc2cc(N(C)CC[18F])ccc2c1` [18F-FDDNP, 2-(1-{6-[(2-[^18F]fluoroethyl)(methyl)amino]-2-naphtyl}ethylidene)malonitrile] as the compound, how does the “binding ratios with respect to cerebellum” value ([1]; 18 month old triple transgenic mice, FIG. 4B) read?
A: 1.5 and 2.0

Q: And the “selectivity of binding to the plaques” value [1]?
A: less selective

Q: What about the “binding in the cerebellum (no significant amount of plaques)” value ([1]; triple transgenic mice, FIG. 3D) of the same compound?
A: significant amount of binding

Q: What about the “ratio of binding in plaque to non-plaque areas within the same slice” value (β-amyloid plaques [2]; in the presence of 10 μM FDDNP) of the same compound?
A: 1.2

Q: What about the “ratio of binding in plaque to non-plaque areas within the same slice” value (β-amyloid plaques [2]; no competitor) of the same compound?
A: 1.4

Q: Which “binding in the cerebellum (CB)” value (β-amyloid plaques [4]; FIG. 7) does the source give for `COc1cc(/C=C/C(=O)CC(=O)/C=C/c2ccc(OCCC[18F])c(OC)c2)ccc1O` [18F-FPCUR, ^18F-fluoropropylcurcumin] here?
A: little binding

Q: And the “binding in older transgenic mice” value (β-amyloid plaques [4]; older transgenic mice)?
A: Increased binding

Q: With `COc1cc(/C=C/C(=O)CC(=O)/C=C/c2ccc(O)c(OC)c2)ccc1O` [Curcumin] as the compound, how does the “displacement of 18F-FPCUR binding by competitor” value (β-amyloid plaques [4]; 10 μM competitor) read?
A: displaced

Q: For `CC(C=Cc1ccc(N(C)CCF)cc1)=C(C#N)C#N` [FBM], which “effect of competitor on binding of 18F-FDDNP in the hippocampus” value ([1]; FBM (1 mM), FIG. 3F) is on record?
A: reduced

Q: Which “effect of competitor on selective binding of 18F-FBM to plaque regions” value ([1]; 1 μM FDDNP, FIG. 3E) does the source give for `CC(=C(C#N)C#N)c1ccc2cc(N(C)CCF)ccc2c1` [FDDNP] here?
A: significantly reduced
